Results reported in patent US11149277B2, “Method of producing enriched exosomes” (National Health Research Institutes, priority 2016, dated 2021).

Key:
[1] = tested on: NAMECs; assay: Western blot of exosome markers and proteins in CM-P4 fractions of NAMECs; format: cell-based, human
Source text: FIG. 2 includes graphs and blots showing analyses of GW-treated NAMEC P4 fractions. CM-P4 GW-treated NAMECs were collected and subjected to (A) NanoSight Nanoparticle Tracking Analysis (NTA) and (B) Dynamic Light Scattering/Zeta Potential Analysis (DLS). […] D: particle diameter. RN: relative number. (C) is a blot showing the amounts of the CD44 stem cell marker and the CD81, CD9, TSG101, Alix, HSP70 and GAPDH exosome markers measured in the indicated CM-P4 fractions and cell lysates. The culture media and cell lysates were collected from the same number of NAMECs treated with vehicle (Crl), GW627368X (GW) or PGE2 (1 μM) for 4 days. (D) is a blot showing the amounts of the GAPDH and CD81 exosome markers and the CD44 stem cell marker measured in the CM-P4 fraction of NAMECs (CD44hi/CD24− stem cells) or CD44lo/CD24+ non-stem cells (HMLE cells) treated with vehicle (Crl) or GW for 2 days. 1×: P4 exosome fraction released by 1×10^6 cells; 2×: P4 exosome fraction released by 2×10^6 cells. […] (E) is a blot showing that the CD44 stem cell marker and GAPDH and CD81 exosome markers were measured in the indicated P4 conditioned medium fractions of NAMECs treated with vehicle (Crl), GW627368X (GW, 1 μg/ml), AH23848 (EP4 antagonist; 0.4, 2, 4 μg/ml), or AH6809 (EP1/2/3 antagonist; 0.8, 4, 8 μg/ml). (F) is a blot showing the HSP70, GAPDH and CD81 exosome markers measured in the indicated CM-P4 of NAMECs, NAMEC-shEP4-1 cells, and NAMEC-shEP4-2 cells treated with vehicle or with doxycycline (Dox, 2 μg/ml) (top panel). Doxyclycline (Dox) induced the production EP4 shRNA in NAMEC-shEP4 cells (bottom panel).
The P4 exosome fractions and cell lysates were collected from NAMECs treated with vehicle (Crl), GW627368X (GW), or PGE2 for 4 days. 1×: P4 exosome fraction released by 2.5×10^5 cells; 5×: P4 exosome fraction released by 12.5×10^5 cells. Hg: Hg-integrin β1, Lg: Lg-integrin β1, H: H-integrin α6, L: L-integrin α6, pg: pg-LRP6, g: g-LRP6, Ng: Ng-LRP6.
The isolated human mammary epithelial stem cells (NAMECs) were cultured in mammary epithelial cell basal medium (250 ml MCDB-170, 250 ml DMEM-F12, 1.2 g sodium bicarbonate, 2.5 μg EGF, 0.25 mg Hydrocortisone, 2.5 mg insulin, 35 mg BPE) with or without containing EP4 antagonist, i.e., GW627368X (GW) at 1 μg/ml, or AH23848 (AH) at 4 μg/ml, for 4 days. The culture medium was supplied with 0.5 μg/ml of GW or 2 μg/ml of AH23848 at the third day of the culturing period. For the induction of EP4 antagonist-induced exosomes from mouse mammary epithelial cells, cells were cultured in a medium containing 10 μg/ml of GW for 4 days.
The culture media were centrifuged at 300 g for 5 min to remove cells (P1), at 2,000 g for 20 min (P2), then at 10,000 g for 30 min (P3) all at 4° C. Dead cells and cell debris were removed at 300 g (P1) and 1200 g (P2). […]

[2] = tested on: mesenchymal stem cells (MSCs); assay: EV/exosome release from mesenchymal stem cells; format: cell-based; conditions: GW for 8 days
Source text: FIG. 10 includes blots and a graph. (A) is a graph showing vesicle number analysis of GW-treated mesenchymal stem cells (MSCs) P4 fractions. The CM-P4 GW-treated MSCs were collected and subjected to NanoSight Nanoparticle Tracking Analysis (NTA). Quantification of EV/exosome release is shown as the ratio of [vesicle number]/[cell number]. Data are means±SEM (n=3). ***P≤0.001. (B) is a set of blots showing the protein contents measured in the EV/exosome fraction released by MSCs treated with vehicle DMSO (MSC) or EP4 antagonists (MSCGW). The culture media (D1-4: conditioned medium from day 1 to day 4; D5-8: conditioned medium from day 5 to day 8) were collected from MSCs treated with vehicle (MSC), or GW (MSCGW) for 8 days. (C) is a set of blots showing the protein contents measured in the EV/exosome fraction released by neural stem cells (NSCs) treated with vehicle DMSO or EP4 antagonists. […]
(A) Vesicle number of GW-treated MSC P4 fractions was analyzed. […] (B) Proteins were measured in the EV/exosome fraction released by MSCs treated with vehicle DMSO, EP4 antagonists (GW), or EP4 agonist PGE2. […] (C) Cytokines were measured in the EV/exosome fraction released by MSCs treated with DMSO (MSC) or EP4 antagonist (MSCGW). […] EV/exosome cytokines released by the same number of MSCs were measured using cytokine arrays (C) and Bio-plex (D; IL-10). […]

SMILES: CCOc1c2c(c(OCC)c3ccccc13)C(=O)N(c1ccc(CC(=O)NS(=O)(=O)c3ccccc3)cc1)C2 [GW627368X]
- amount of total exosomal proteins released vs vehicle or PGE2 ([1]; 4 days treatment): much greater
- exosome release by exosome markers in CM-P4 fractions ([1]; AH23848 0.4, 2, 4 μg/ml, AH6809 0.8, 4, 8 μg/ml, GW 1 μg/ml): Large amounts
- release of EVs/exosomes from MSCs [2]: increased the release of EVs/exosomes
